Measured values published in patent US20220349015A1, “DIAGNOSIS AND TREATMENT OF THYROID CANCER” (Beth Israel Deaconess Medical Center, Inc., priority 2019, published 2022).

Assays:
[1] = tested on: Xloc13 lincRNA expression in BRAF^V600E PTC-derived cells; assay: qPCR of Xloc13 expression in BRAF^V600E PTC-derived cells; assay type: cell-based, human; settings: metastatic or non-metastatic PTC-derived cells; vs. vehicle
[2] = tested on: TPO and TTF-1 mRNA in BRAF^V600E PTC-derived cells; assay: qPCR of iodide metabolism genes (TPO, TTF-1 mRNA) in PTC-derived cells
[3] = tested on: human invasive heterozygous BRAF^WT/V600E PTC-derived cell line; assay: Invasion of human invasive BRAF^WT/V600E PTC-derived cell line; assay type: cell-based
[4] = tested on: BRAF^WT/V600E PTC-derived cell line xenograft tumors; assay: Xenograft mouse model of human invasive heterozygous BRAF^WT/V600E PTC-derived cell line
[5] = tested on: BRAF^V600E PTC-derived cells; assay: 123-Iodide uptake in vitro; settings: Xloc13 lincRNA; synergizes with vemurafenib
[6] = Xloc13+ BRAF^WT/V600E PTC-derived cells

Compound | rescue of Xloc13 expression (qPCR) [1] | TPO and TTF-1 mRNA levels rise ([2]; cells engineered to over-express Xloc13 (Xloc13+) during treatment with vemurafenib) [fold-changes] | TPO mRNA expression levels ([2]; Xloc13 lincRNA over-expression in PTC-derived cell lines) | invasion ([3]; Xloc13 lincRNA overexpression alone) | invasion ([3]; Xloc13 lincRNA overexpression plus vemurafenib) | EZH2 protein levels [4, 6] | H3K27me3 (EZH2 effector) [4, 6] | decrease in growth ([4]; Xloc13+ cells under vemurafenib therapy vs. backbone vector control) [fold] | 123-Iodide uptake in xenograft tumors (nano-SPECT imaging) ([4]; Xloc13+ tumors of vemurafenib-treated mice vs. vehicle-treated backbone vector controls) | 123-iodide uptake/organification in vitro [5]
CCCS(=O)(=O)Nc1ccc(F)c(C(=O)c2c[nH]c3ncc(-c4ccc(Cl)cc4)cc23)c1F [vemurafenib, reference compound] | 4-6 fold-changes | ~3.5 | – | – | – | – | – | – | – | –
Xloc13 lincRNA: thyroid-specific long intergenic non-coding RNA (2.257 kb, SEQ ID NO: 1), over-expressed from a vector in PTC-derived cells | – | – | up-regulates TPO mRNA expression levels | inhibited invasion | inhibits invasion | transcriptionally down-regulated EZH2 protein levels | reducing its effector H3K27me3 | > 3 | significantly crucial for the recovery | crucial for the rescue
